US20250346582A1, “SPLEEN TYROSINE KINASE INHIBITORS AND METHODS OF USE THEREOF” (THE BOARD OF TRUSTEES OF THE UNIVERSITY OF ILLINOIS, priority 2022, published 2025)

Columns and labels:
Syk [1] = biological target: T1, Syk (Homo sapiens, UniProt P43405); assay: Streptavidin pull down assay with WC36B in MV4-11 cells; assay type: cell-based; details: MV4-11 cells, 5 μM for 24 h, immunoblotting
T1 construct: host or cells: MV4-11 AML cells (naive and entospletinib-resistant)
Method: (§1) Streptavidin-coated beads (Dynabeads™ M280 streptavidin beads; ThermoFisher) were washed twice with 1 ml of PBST (PBS+0.1% Tween 20) and resuspended in 100 μl of PBST. WC36B (or biotin) (10 mM) was added to 100 μl of the bead suspension and the mixture was incubated at room temperature for 15 min with gentle shaking. The mixture was then vortexed for 5 s and the tube was placed on a magnet for 1 min. After discarding the supernatant, the beads were resuspended in the same volume of the washing buffer. Washing is repeated three times to remove excess WC36B. WC36B-coated beads were then incubated with the cell lysate (MV-4-11) for 30 min at room temperature with gentle shaking. Protein-coated beads were separated with a magnet for 2-3 min and washed 4-5 times with PBS containing 0.1% BSA. The protein was then removed from the beads by boiling the beads in the SDS-polyacrylamide gel electrophoresis (PAGE) application buffer. Samples were concentrated for the mass spectrometry analysis and the western blot assay.

Syk [2] = biological target: T1, Syk; assay: Mass spectrometry proteomics of WC36B-binding cellular proteins; assay type: cell-based; details: biotin as negative control
Method: as §1
MS analysis was performed to identify proteins captured by WC36B and biotin. […]

In the case of [N-]=[N+]=C(C(=O)NCCNC(=O)CCCC[C@H]1SC[C@H]2NC(=O)N[C@H]21)C(Nc1ncccn1)c1c[nH]c2ccccc12 (stereo partly drawn) [WC36B, N-(2-(2-diazo-3-(1H-indol-3-yl)-3-(pyrimidin-2-ylamino)propanamido)ethyl)-5-((3aR,4R,6aS)-2-oxohexahydro-1H-thieno[3,4d]imidazol-4-yl)pentanamide], the “capture of Syk by streptavidin pulldown” value (Syk [1]) is reported as “targets Syk in MV4-11 cells” and the “proteins captured (proteomics)” value (Syk [2]) is reported as “Syk is the single major protein that is captured by the WC36 pharmacophore”.
